According to the supplement of paper PMC4862054:

Assays:
Details in all cases: incubation time: 72 h
BT-474 [1] = assay: normalised viability (% of control), CellTiter-Blue; higher = more viable cells (about 100 = DMSO control)
In short: (§1)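 Compound dissolved in 5 µl medium was pre-loaded into 384-well plates, and breast cancer cell lines in 20 µl suspension were seeded on top and incubated 72 h. After adding 2.5 µl CellTiter-Blue reagent for 2 h at 37 °C, fluorescence was read at 560/590 nm. Plates were normalised to vehicle (100) and a positive kill control (0), with Z'-factor quality control. Each value is normalised viability at a single listed concentration from the series.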

BT-549 [2] = assay: as above
In short: as §1

CAL-51 [3] = assay: as above
In short: as §1

HCC1143 [4] = assay: as above
In short: as §1

HCC1599 [5] = assay: as above
In short: as §1

HCC1937 [6] = assay: as above
In short: as §1

Hs578T [7] = assay: as above
In short: as §1

MDA-MB-436 = assay: as above
In short: as §1

MFM-223 [8] = assay: as above
In short: as §1

BT-474 [9] = assay: drug sensitivity score (DSS), CellTox Green (DSS (AUC-based score)); higher = stronger drug effect (viability inhibition or cytotoxicity); extreme values may be limits of the assay
In short: (§2)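 The drug sensitivity score reflects the area under a fitted dose-response curve. To obtain it, breast cancer cells in 20 µl suspension were seeded into 384-well plates containing compound at 5 concentrations, 10-fold apart over a compound-specific 10,000-fold range, and incubated 72 h. CellTox Green fluorescence (485/520 nm) was read first and CellTiter-Glo luminescence second, after 10 min at room temperature. Each plate was normalised to 0.1 % DMSO and a positive kill control.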

BT-549 [10] = assay: as above
In short: as §2

CAL-120 = assay: as above
In short: as §2

CAL-148 = assay: as above
In short: as §2

CAL-51 [11] = assay: as above
In short: as §2

CAL-85-1 = assay: as above
In short: as §2

DU-4475 = assay: as above
In short: as §2

HCC1143 [12] = assay: as above
In short: as §2

HCC1599 [13] = assay: as above
In short: as §2

HCC1937 [14] = assay: as above
In short: as §2

HDQ-P1 = assay: as above
In short: as §2

Hs578T [15] = assay: as above
In short: as §2

MCF-10A = assay: as above
In short: as §2

MDA-MB-231 = assay: as above
In short: as §2

MDA-MB-453 = assay: as above
In short: as §2

MFM-223 [16] = assay: as above
In short: as §2

COc1cccc2c1C(=O)c1c(O)c3c(c(O)c1C2=O)C[C@@](O)(C(C)=O)C[C@@H]3O[C@H]1C[C@H](N)[C@H](O)[C@H](C)O1 [Daunorubicin]
normalised viability [%]
Details	BT-474 [1]	BT-549 [2]	CAL-51 [3]	HCC1143 [4]	HCC1599 [5]	HCC1937 [6]	Hs578T [7]	MDA-MB-436	MFM-223 [8]
0.3 nM	–	–	97.1	–	–	–	–	–	–
1 nM	118	87	–	81.4	82.5	105	111	100	108
3 nM	–	–	92.9	–	–	–	–	–	–
10 nM	–	–	88.2	–	–	–	–	–	–
100 nM	80.3	59	–	52.7	98.8	34.2	64.1	50.4	104
1000 nM	17.3	11	–	32	53.7	20	6.42	17.3	26.7

Details	drug sensitivity score
BT-474 [9]	0
BT-549 [10]	0
CAL-51 [11]	5.74
CAL-85-1	0
CAL-120	0
CAL-148	0
DU-4475	0
HCC1143 [12]	0
HCC1599 [13]	0
HCC1937 [14]	0
HDQ-P1	0
Hs578T [15]	0
MCF-10A	0
MDA-MB-231	0
MDA-MB-453	0
MFM-223 [16]	0

COc1ccc(C2=N[C@@H](c3ccc(Cl)cc3)[C@@H](c3ccc(Cl)cc3)N2C(=O)N2CCNC(=O)C2)c(OC(C)C)c1 [Nutlin-3]
normalised viability [%]
Details	BT-474 [1]	BT-549 [2]	CAL-51 [3]	HCC1143 [4]	HCC1599 [5]	HCC1937 [6]	Hs578T [7]	MDA-MB-436	MFM-223 [8]
3 nM	–	–	101	–	–	–	–	–	–
10 nM	120	91.3	–	77.6	96.1	81.3	105	108	87.5
30 nM	–	–	98.6	–	–	–	–	–	–
100 nM	–	–	97.5	–	–	–	–	–	–
1000 nM	114	98.4	–	82.8	104	98.7	117	82.3	83.2
10000 nM	90.3	103	–	82.9	97.4	113	100	110	81.6

Details	drug sensitivity score
BT-474 [9]	0
BT-549 [10]	0
CAL-51 [11]	13.1
CAL-85-1	0
CAL-120	0
CAL-148	1.15
DU-4475	0
HCC1143 [12]	0
HCC1599 [13]	0
HCC1937 [14]	2.28
HDQ-P1	0
Hs578T [15]	0
MCF-10A	0
MDA-MB-231	0
MDA-MB-453	0
MFM-223 [16]	0

CC(=O)O[C@H]1C(=O)[C@@]2(C)[C@H]([C@H](OC(=O)c3ccccc3)[C@]3(O)C[C@H](OC(=O)[C@H](O)[C@@H](NC(=O)c4ccccc4)c4ccccc4)C(C)=C1C3(C)C)[C@]1(OC(C)=O)CO[C@@H]1C[C@@H]2O [Paclitaxel]
normalised viability [%]
Details	BT-474 [1]	BT-549 [2]	CAL-51 [3]	HCC1143 [4]	HCC1599 [5]	HCC1937 [6]	Hs578T [7]	MDA-MB-436	MFM-223 [8]
0.3 nM	–	–	95.1	–	–	–	–	–	–
1 nM	106	83.7	–	104	113	91.1	110	100	98.2
3 nM	–	–	82.9	–	–	–	–	–	–
10 nM	–	–	57.9	–	–	–	–	–	–
100 nM	25.2	21.1	–	34.5	86.7	15.3	16.4	50.5	45.1
1000 nM	27.7	20.4	–	32.5	69.6	19.7	11.1	42.2	51.7

Details	drug sensitivity score
BT-474 [9]	12.7
BT-549 [10]	9.38
CAL-51 [11]	22.7
CAL-85-1	23.2
CAL-120	2.71
CAL-148	7.75
DU-4475	0
HCC1143 [12]	0
HCC1599 [13]	0
HCC1937 [14]	0
HDQ-P1	0
Hs578T [15]	20.3
MCF-10A	21.4
MDA-MB-231	25.5
MDA-MB-453	0
MFM-223 [16]	13.7

COc1c(C)cnc(Cn2cnc3c(Cl)nc(N)nc32)c1C [BIIB021]
normalised viability [%]
Details	BT-474 [1]	BT-549 [2]	CAL-51 [3]	HCC1143 [4]	HCC1599 [5]	HCC1937 [6]	Hs578T [7]	MDA-MB-436	MFM-223 [8]
3 nM	–	–	103	–	–	–	–	–	–
10 nM	104	87.8	–	80.8	102	83.1	95.3	92.5	81.9
30 nM	–	–	102	–	–	–	–	–	–
100 nM	–	–	101	–	–	–	–	–	–
1000 nM	22.9	36.5	–	32.1	58.8	25.1	61	43.5	23
10000 nM	27.3	31.1	–	30.6	40.7	22.1	46.9	25.5	23.8

Details	drug sensitivity score
BT-474 [9]	4.79
BT-549 [10]	0
CAL-51 [11]	5.48
CAL-85-1	6.72
CAL-120	0
CAL-148	16
DU-4475	4.2
HCC1143 [12]	0
HCC1599 [13]	0
HCC1937 [14]	0
HDQ-P1	3.67
Hs578T [15]	3.62
MCF-10A	15.3
MDA-MB-231	6.24
MDA-MB-453	0
MFM-223 [16]	0
